Assay results as given in US10945435B2, “Imidazopyrimidine derivatives with sulfur containing phenyl and pyridyl substituents” (SYNGENTA PARTICIPATIONS AG, priority 2017, dated 2021).

Experiments:
Format in all cases: in vivo
[1] = tested on: Myzus persicae (Green Peach Aphid); assay: Example B9 Myzus persicae feeding/contact activity; conditions: foliar, 144 h, application rate of 200 ppm, mixed-age aphids on sprayed sunflower leaf discs, 6 days after infestation
Description: Myzus persicae (Green Peach Aphid): Feeding/Contact Activity
Sunflower leaf discs were placed onto agar in a 24-well microtiter plate and sprayed with aqueous test solutions prepared from 10,000 ppm DMSO stock solutions. After drying, the leaf discs were infested with an aphid population of mixed ages. The samples were assessed for mortality 6 days after infestation.

[2] = tested on: Diabrotica balteata (Corn Root Worm); assay: Example B4 Diabrotica balteata mortality; conditions: 96 h, application rate of 200 ppm, L2 larvae on sprayed maize sprouts, 4 days after infestation
Description: (§1) Diabrotica Balteata (Corn Root Worm):
Maize sprouts placed onto an agar layer in 24-well microtiter plates were treated with aqueous test solutions prepared from 10,000 ppm DMSO stock solutions by spraying. After drying, the plates were infested with L2 larvae (6 to 10 per well). The samples were assessed for mortality 4 days after infestation.

[3] = tested on: Bemisia tabaci (Cotton White Fly); assay: Example B1 Bemisia tabaci feeding/contact activity; conditions: foliar, 144 h, application rate of 200 ppm, adult white flies on sprayed cotton leaf discs, 6 days after incubation
Description: Bemisia tabaci (Cotton White Fly): Feeding/Contact Activity
Cotton leaf discs were placed on agar in 24-well microtiter plates and sprayed with aqueous test solutions prepared from 10,000 ppm DMSO stock solutions. After drying the leaf discs were infested with adult white flies. The samples were checked for mortality 6 days after incubation.

[4] = tested on: Plutella xylostella (Diamond Back Moth); assay: Example B11 Plutella xylostella growth inhibition activity; conditions: 120 h, application rate of 200 ppm, L2 larvae on treated artificial diet, 5 days after infestation
[5] = tested on: Spodoptera littoralis (Egyptian Cotton Leaf Worm); assay: Example B14 Spodoptera littoralis anti-feeding activity; conditions: foliar, 72 h, application rate of 200 ppm, L1 larvae on sprayed cotton leaf discs, 3 days after infestation, read-out: control (anti-feeding effect)
[6] = tested on: Euschistus heros (Neotropical Brown Stink Bug); assay: Example B7 Euschistus heros feeding/contact activity; conditions: 120 h, application rate of 200 ppm, N2 nymphs on sprayed soybean leaves, 5 days after infestation
Description: Euschistus heros (Neotropical Brown Stink Bug): Feeding/Contact Activity
Soybean leaves on agar in 24-well microtiter plates were sprayed with aqueous test solutions prepared from 10,000 ppm DMSO stock solutions. After drying the leaves were infested with N2 nymphs. The samples were assessed for mortality 5 days after infestation.

[7] = tested on: Frankliniella occidentalis (Western Flower Thrips); assay: Example B8 Frankliniella occidentalis feeding/contact activity; conditions: foliar, 168 h, application rate of 200 ppm, mixed-age population on sprayed sunflower leaf discs, 7 days after infestation
Description: Frankliniella occidentalis (Western Flower Thrips): Feeding/Contact Activity
Sunflower leaf discs were placed on agar in 24-well microtiter plates and sprayed with aqueous test solutions prepared from 10,000 DMSO stock solutions. After drying the leaf discs were infested with a Frankliniella population of mixed ages. The samples were assessed for mortality 7 days after infestation.

[8] = tested on: Spodoptera littoralis (Egyptian Cotton Leaf Worm); assay: Example B16 Spodoptera littoralis feeding/contact activity; conditions: foliar, 72 h, application rate of 200 ppm, L1 larvae on sprayed cotton leaf discs, 3 days after infestation
Description: Spodoptera littoralis (Egyptian Cotton Leaf Worm): Feeding/Contact Activity
Cotton leaf discs were placed onto agar in 24-well microtiter plates and sprayed with aqueous test solutions prepared from 10,000 ppm DMSO stock solutions. After drying the leaf discs were infested with five L1 larvae. The samples were assessed for mortality 3 days after infestation.

[9] = tested on: Diabrotica balteata (Corn Root Worm); assay: Example B2 Diabrotica balteata mortality and growth inhibition; conditions: 96 h, application rate of 200 ppm, L2 larvae on sprayed maize sprouts, 4 days after infestation, read-out: effect in at least one of the two categories (mortality or growth inhibition)
Description: Diabrotica balteata (Corn Root Worm)
Maize sprouts placed onto an agar layer in 24-well microtiter plates were treated with aqueous test solutions prepared from 10,000 ppm DMSO stock solutions by spraying. After drying, the plates were infested with L2 larvae (6 to 10 per well). The samples were assessed for mortality and growth inhibition in comparison to untreated samples 4 days after infestation.

[10] = tested on: Diabrotica balteata (Corn Root Worm); assay: Example B3 Diabrotica balteata growth inhibition; conditions: 96 h, application rate of 200 ppm, L2 larvae on sprayed maize sprouts, 4 days after infestation
Description: as §1
Maize sprouts placed onto an agar layer in 24-well microtiter plates were treated with aqueous test solutions prepared from 10,000 ppm DMSO stock solutions by spraying. After drying, the plates were infested with L2 larvae (6 to 10 per well). The samples were assessed for growth inhibition in comparison to untreated samples 4 days after infestation. Control of Diabrotica balteata by a test sample is given when the growth inhibition is higher than in the untreated sample.

[11] = tested on: Plutella xylostella (Diamond Back Moth); assay: Example B12 Plutella xylostella feeding/contact activity; conditions: 120 h, application rate of 200 ppm, L2 larvae on treated artificial diet, 5 days after infestation
Description: Plutella xylostella (Diamond Back Moth): Feeding/Contact Activity
24-well microtiter plates with artificial diet were treated with aqueous test solutions prepared from 10,000 ppm DMSO stock solutions by pipetting. After drying, the plates were infested with L2 larvae (10 to 15 per well). The samples were assessed for mortality 5 days after infestation.

[12] = tested on: Myzus persicae (Green Peach Aphid); assay: Example B10 Myzus persicae systemic activity; conditions: 144 h, test rate of 24 ppm, roots of infested pea seedlings in test solution, 6 days
Description: Myzus persicae (Green Peach Aphid). Systemic Activity
Roots of pea seedlings infested with an aphid population of mixed ages were placed directly into aqueous test solutions prepared from 10,000 DMSO stock solutions. The samples were assessed for mortality 6 days after placing seedlings into test solutions.

[13] = tested on: Euschistus heros (Neotropical Brown Stink Bug); assay: Example B5 Euschistus heros mortality and growth inhibition; conditions: 120 h, application rate of 200 ppm, N2 nymphs on sprayed soybean leaves, 5 days after infestation, read-out: effect in at least one of the two categories (mortality or growth inhibition)
Description: Euschistus heros (Neotropical Brown Stink Bug)
Soybean leaves on agar in 24-well microtiter plates were sprayed with aqueous test solutions prepared from 10,000 ppm DMSO stock solutions. After drying the leaves were infested with N2 nymphs. The samples were assessed for mortality and growth inhibition in comparison to untreated samples 5 days after infestation.

[14] = tested on: Plutella xylostella (Diamond Back Moth); assay: Example B13 Plutella xylostella mortality and growth inhibition; conditions: 120 h, application rate of 200 ppm, L2 larvae on treated artificial diet, 5 days after infestation, read-out: effect in at least one of the two categories (mortality or growth inhibition)
Description: Plutella xylostella (Diamond Back Moth)
24-well microtiter plates with artificial diet were treated with aqueous test solutions prepared from 10,000 ppm DMSO stock solutions by pipetting. After drying, the plates were infested with L2 larvae (10 to 15 per well). The samples were assessed for mortality and growth inhibition in comparison to untreated samples 5 days after infestation.

[15] = tested on: Euschistus heros (Neotropical Brown Stink Bug); assay: Example B6 Euschistus heros growth inhibition; conditions: 120 h, application rate of 200 ppm, N2 nymphs on sprayed soybean leaves, 5 days after infestation
Description: Euschistus heros (Neotropical Brown Stink Bug): Growth Inhibition
Soybean leaves on agar in 24-well microtiter plates were sprayed with aqueous test solutions prepared from 10,000 ppm DMSO stock solutions. After drying the leaves were infested with N2 nymphs. The samples were assessed for growth inhibition in comparison to untreated samples 5 days after infestation. Control of Euschistus heros by a test sample is given when the growth inhibition is higher than the untreated sample.

CCS(=O)(=O)c1cc(OCC(F)F)cnc1-c1cn2cnc(C(F)(F)F)cc2n1 [Compound P8, 2-[5-(2,2-difluoroethoxy)-3-ethylsulfonyl-2-pyridyl]-7-(trifluoromethyl)imidazo[1,2-c]pyrimidine]
≥ 80%: mortality at 200 ppm [1] | mortality at 200 ppm [2] | mortality at 200 ppm [3] | inhibition at 200 ppm [4] | pest or weed control at 200 ppm [5] | mortality at 200 ppm [6] | mortality at 200 ppm [7] | mortality at 200 ppm [8] | percent effect (mortality or growth inhibition) at 200 ppm [9] | inhibition at 200 ppm [10] | mortality at 200 ppm [11] | mortality at 24 ppm [12] | percent effect (mortality or growth inhibition) at 200 ppm [13] | percent effect (mortality or growth inhibition) at 200 ppm [14]

CCS(=O)(=O)c1cc(OCC(C)C)cnc1-c1cn2cnc(C(F)(F)F)cc2n1 [Compound P14, 2-(3-ethylsulfonyl-5-isobutoxy-2-pyridyl)-7-(trifluoromethyl)imidazo[1,2-c]pyrimidine]
≥ 80%: mortality at 200 ppm [1] | inhibition at 200 ppm [15] | mortality at 200 ppm [2] | pest or weed control at 200 ppm [5] | mortality at 200 ppm [6] | mortality at 200 ppm [8] | percent effect (mortality or growth inhibition) at 200 ppm [9] | mortality at 200 ppm [11] | percent effect (mortality or growth inhibition) at 200 ppm [13] | percent effect (mortality or growth inhibition) at 200 ppm [14]

CCS(=O)(=O)c1cc(OC[S+](C)[O-])cnc1-c1cn2cnc(C(F)(F)F)cc2n1 (stereo not shown) [Compound P22, 2-[3-ethylsulfonyl-5-(methylsulfinylmethoxy)-2-pyridyl]-7-(trifluoromethyl)imidazo[1,2-c]pyrimidine]
≥ 80%: mortality at 200 ppm [1] | inhibition at 200 ppm [15] | mortality at 200 ppm [3] | mortality at 200 ppm [6] | mortality at 200 ppm [7] | mortality at 24 ppm [12] | percent effect (mortality or growth inhibition) at 200 ppm [13]
